Results as given in US20200255415A1, “TETRASUBSTITUTED ALKENE COMPOUNDS AND THEIR USE FOR THE TREATMENT OF BREAST CANCER” (Eisai R&D Management Co., Ltd., priority 2016, published 2020).

Molecular target: T1, human CYP3A4 (Homo sapiens, UniProt P08684)
T1 construct: human CYP3A4 using liver microsomes (0.1 mg/mL); from tissue; host or cells: liver microsomes
Test: Time-dependent inhibition assay (IC50 shift), liver microsomes
Format: in vitro ADME
Settings: IC50 shift; human liver microsomes, 30 min pre-incubation, midazolam probe
Method: One of these approaches uses multiple test compound concentrations at a single incubation time, e.g. the “IC50 shift” approach. In an IC50 shift experiment, the IC50 is determined for a CYP marker activity before and after the test compound has been incubated with enzyme and the co-factor nicotinamide adenine dinucleotide phosphate (NADPH) for a set preincubation time (Grimm et al, 2009).
The IC50 shift approach was used to determine whether compounds are time-dependent inhibitors of human CYP3A4 using liver microsomes (0.1 mg/mL). A 30-minute pre-incubation time point was selected, where compounds (9 concentrations, 0 to 30 μmol/L) are incubated at 37° C. in presence and absence of 1 mmol/L NADPH. Following the pre-incubation period, 5 μmol/L midazolam (the probe substrate) was added and formation of hydroxymidazolam was measured by high-performance liquid chromatography-mass spectrometry (LC-MS/MS) analysis following a 5 minute incubation period. Any decrease in the formation of hydroxymidazolam, in peak area ratios to vehicle control, was used to calculate three IC50 values (0 min pre-incubation, 30 min pre-incubation with NADPH, and 30 min pre-incubation without NADPH). […] Assays were performed in duplicate, and mifepristone was used as positive control. In Table 3, “Yes” indicates a TDI shift greater than or equal to 3. “No” indicates a TDI shift greater than or equal to 1 and less than 3.
The IC50 shift approach was also used to determine whether Compound 69 of PCT International Application Publication No. WO/2016/196346 is a time-dependent inhibitor of human CYP3A4 using liver microsomes. Similar to the experimental design described above, a 30-minute pre-incubation time point was selected. Minor variations to the method described above were that Compound 69 of PCT International Application Publication No. WO/2016/196346 was tested at 8 concentrations (0 to 10 μmol/L). Following the pre-incubation period, 3 μmol/L midazolam was added and formation of hydroxymidazolam was measured following a 2 minute incubation period. Since under these experimental conditions, the formation of hydroxymidazolam followed first order kinetics (considered as a linear process), these changes in assay design are not expected to impact the IC50 determinations. In parallel, the IC50 shift assay was also performed with 15.6 μmol/L testosterone (0.05 mg/mL liver microsomes, 10 minute incubation) as second probe substrate. Assays for both probe substrates were performed in triplicate, and mifepristone was used as positive control.

T1 sequence (P08684 whole entry): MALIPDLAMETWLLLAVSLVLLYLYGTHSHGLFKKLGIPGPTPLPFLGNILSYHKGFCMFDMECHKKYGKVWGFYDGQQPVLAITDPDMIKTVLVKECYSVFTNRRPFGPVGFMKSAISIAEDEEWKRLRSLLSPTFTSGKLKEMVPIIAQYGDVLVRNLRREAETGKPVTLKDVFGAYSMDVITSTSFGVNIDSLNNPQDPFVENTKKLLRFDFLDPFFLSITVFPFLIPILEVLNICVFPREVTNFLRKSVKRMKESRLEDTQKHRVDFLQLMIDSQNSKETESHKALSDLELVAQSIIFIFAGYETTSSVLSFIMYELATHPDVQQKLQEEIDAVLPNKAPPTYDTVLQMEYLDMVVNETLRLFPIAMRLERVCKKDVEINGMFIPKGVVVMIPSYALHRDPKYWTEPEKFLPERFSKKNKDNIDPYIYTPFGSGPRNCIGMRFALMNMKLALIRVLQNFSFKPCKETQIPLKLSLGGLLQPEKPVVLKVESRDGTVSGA

Row | Compound | CYP3A4 TDI
1 | CN(C)C(=O)CCCNCCOc1ccc(/C(=C(/CC(F)(F)F)c2ccccc2)c2ccc3[nH]nc(F)c3c2)cn1 [Compound 2, (Z)-N,N-dimethyl-4-((2-((5-(4,4,4-trifluoro-1-(3-fluoro-1H-indazol-5-yl)-2-phenylbut-1-en-1-yl)pyridin-2-yl)oxy)ethyl)amino)butanamide] | Yes (“Yes” indicates a TDI shift greater than or equal to 3)
2 | O=C(/C=C/CNCCOc1ccc(/C(=C(/CC(F)(F)F)c2ccccc2)c2ccc3[nH]nc(F)c3c2)cn1)NCCO [Compound 7, (E)-N-(2-hydroxyethyl)-4-((2-((5-((Z)-4,4,4-trifluoro-1-(3-fluoro-1H-indazol-5-yl)-2-phenylbut-1-en-1-yl)pyridin-2-yl)oxy)ethyl)amino)but-2-enamide] | No (“No” indicates a TDI shift greater than or equal to 1 and less than 3)
3 | CNC(=O)/C=C/CNCCOc1ccc(/C(=C(/CC(F)(F)F)c2ccccc2)c2ccc3[nH]ncc3c2)cn1 [Compound 9, (E)-N-methyl-4-((2-((5-((Z)-4,4,4-trifluoro-1-(1H-indazol-5-yl)-2-phenylbut-1-en-1-yl)pyridin-2-yl)oxy)ethyl)amino)but-2-enamide] | Yes (“Yes” indicates a TDI shift greater than or equal to 3)
4 | CNC(=O)/C=C/CNCCOc1ccc(/C(=C(/CC(F)(F)F)c2ccccc2)c2ccc3[nH]ncc3c2)cc1 [Compound 10, (E)-N-methyl-4-((2-(4-((E)-4,4,4-trifluoro-1-(1H-indazol-5-yl)-2-phenylbut-1-en-1-yl)phenoxy)ethyl)amino)but-2-enamide] | Yes (“Yes” indicates a TDI shift greater than or equal to 3)
5 | Cl.O=C(/C=C/CNCCOc1ccc(/C(=C(/CC(F)(F)F)c2ccccc2)c2ccc3[nH]nc(F)c3c2)cc1)N1CCCC1 [Compound 13, (E)-1-(pyrrolidin-1-yl)-4-((2-(4-((E)-4,4,4-trifluoro-1-(3-fluoro-1H-indazol-5-yl)-2-phenylbut-1-en-1-yl)phenoxy)ethyl)amino)but-2-en-1-one] | No (“No” indicates a TDI shift greater than or equal to 1 and less than 3)
6 | Cl.O=C(/C=C/CNCCOc1ccc(/C(=C(/CC(F)(F)F)c2ccccc2)c2ccc3[nH]nc(F)c3c2)cn1)N1CCCC1 [Compound 15] | No (“No” indicates a TDI shift greater than or equal to 1 and less than 3)
7 | Cl.O=C(/C=C/CNCCOc1ccc(/C(=C(/CC(F)(F)F)c2ccccc2)c2ccc3[nH]ncc3c2)cn1)N1CCCC1 [Compound 16, (E)-1-(pyrrolidin-1-yl)-4-((2-((5-((Z)-4,4,4-trifluoro-1-(1H-indazol-5-yl)-2-phenylbut-1-en-1-yl)pyridin-2-yl)oxy)ethyl)amino)but-2-en-1-one] | Yes (“Yes” indicates a TDI shift greater than or equal to 3)
8 | Cl.O=C(/C=C/CNCCOc1ccc(/C(=C(/CC(F)(F)F)c2ccccc2)c2ccc3[nH]nc(F)c3c2)cc1)N1CCOCC1 [Compound 17] | No (“No” indicates a TDI shift greater than or equal to 1 and less than 3)
9 | Cl.[2H]C([2H])([2H])N(C(=O)/C=C/CNCCOc1ccc(/C(=C(/CC(F)(F)F)c2ccccc2)c2ccc3[nH]ncc3c2)cc1)C([2H])([2H])[2H] [Compound 23] | Yes (“Yes” indicates a TDI shift greater than or equal to 3)
10 | CC/C(=C(/c1ccc(OCCNC/C=C/C(=O)NC)cc1)c1ccc2[nH]nc(F)c2c1)c1ccccc1.Cl [Compound 26, (E)-4-((2-(4-((E)-1-(3-fluoro-1H-indazol-5-yl)-2-phenylbut-1-en-1-yl)phenoxy)ethyl)amino)-N-methylbut-2-enamide] | No (“No” indicates a TDI shift greater than or equal to 1 and less than 3)
11 | CC/C(=C(/c1ccc(OCCNC/C=C/C(=O)NC)nc1)c1ccc2[nH]nc(F)c2c1)c1ccccc1.Cl [Compound 27, (E)-4-((2-((5-((Z)-1-(3-fluoro-1H-indazol-5-yl)-2-phenylbut-1-en-1-yl)pyridin-2-yl)oxy)ethyl)amino)-N-methylbut-2-enamide] | Yes (“Yes” indicates a TDI shift greater than or equal to 3)
